The first assay relates to Cavia porcellus. Nature of the assay: Inhibition of SRS-A-mediated bronchoconstriction and airway microvascular leakage in sensitized guinea pigs […] 1 hr prio to challenge. It counts as functional. As to conditions: Lung, route oral, read-out: ID50 (the source's name).
Regarding `COc1ccc([C@]2(C#N)C[C@H]3C[C@@H](C(=O)O)C[C@H]3C2)cc1OC1CCCC1`, the ED50 was 9.6 mg/kg.
For the compound `CCOc1cc([C@]2(C#N)C[C@H]3C[C@@H](C(=O)NO)C[C@H]3C2)ccc1OC`, the ED50 came to 5 mg/kg.
As for `COc1ccc([C@]2(C#N)CC[C@@H](C(=O)O)CC2)cc1OC1CCCC1` [CILOMILAST], the ED50 stood at 4.5 mg/kg.

The species entered for a further assay is Homo sapiens. The assay can be described thus: Inhibition of LPS induced TNF-alpha production in human whole blood. It is filed as functional. As to conditions: read-out: ID50 (the source's name).
Take `COc1ccc([C@]2(C#N)C[C@H]3C[C@@H](C(=O)O)C[C@H]3C2)cc1OC1CCCC1`: the IC50 was determined as 21000 nM.
On to `CCOc1cc([C@]2(C#N)C[C@H]3C[C@@H](C(=O)NO)C[C@H]3C2)ccc1OC`, for which the IC50 was found to be 800 nM.
For the compound `COc1ccc([C@]2(C#N)CC[C@@H](C(=O)O)CC2)cc1OC1CCCC1` [CILOMILAST], the IC50 was 18000 nM.
On the same count and under the same terms, the result for `CCOc1cc([C@]2(C#N)C[C@H]3C[C@@H](C(=O)O)C[C@H]3C2)ccc1OC` reads 5800 nM.

For a further assay, the target named is T1, Phosphodiesterase 4 (Homo sapiens, UniProt P27815+Q08499+Q07343+Q08493). Nature of the assay: Inhibition of PDE4 (Phosphodiesterase 4) from U937 cells. It is filed as cell-based. The following applies: U-937, concentration not given here.
As for `CCOc1cc([C@]2(C#N)C[C@H]3C[C@@H](C(=O)NO)C[C@H]3C2)ccc1OC`, the inhibition is 56%.

The target of another assay is T1, Phosphodiesterase 4. The assay can be described thus: Inhibition of PDE4 from U937 monocytic cells. It is filed as cell-based. The following applies: u-937.
As for `COc1ccc([C@]2(C#N)C[C@H]3C[C@@H](C(=O)NO)C[C@H]3C2)cc1OC1Cc2ccccc2C1`, the IC50 was determined as 0.85 nM.
Still for that read-out and setting: to `COc1ccc([C@]2(C#N)C[C@H]3C[C@@H](C(=O)O)C[C@H]3C2)cc1OC(C)C` belongs 62 nM; to `COc1ccc([C@]2(C#N)C[C@H]3C[C@@H](C(=O)O)C[C@H]3C2)cc1OC1CCCC1`, 9 nM; to `COc1ccc([C@]2(C#N)C[C@H]3C[C@@H](C(=O)NO)C[C@H]3C2)cc1OC`, 62 nM.
On the same count and under the same terms, to `COc1ccc([C@]2(C#N)C[C@H]3C[C@@H](C(=O)O)C[C@H]3C2)cc1OC1Cc2ccccc2C1` belongs 1.3 nM; to `COc1ccc([C@]2(C#N)C[C@H]3C[C@@H](C(=O)O)C[C@H]3C2)cc1OC`, 160 nM; to `COc1ccc([C@]2(C#N)C[C@H]3C[C@@H](C(=O)O)C[C@H]3C2)cc1OCC1CC1`, 100 nM.
On the same count and under the same terms, the result for `COc1ccc([C@]2(C#N)C[C@H]3C[C@@H](C(=O)NO)C[C@H]3C2)cc1OC(C)C` reads 12 nM; that for `COc1ccc([C@@]2(C#N)C[C@H]3C[C@@H](C(=O)O)C[C@H]3C2)cc1OC1CCCC1`, more than 300 nM; that for `COc1ccc([C@]2(C#N)C[C@H]3C[C@@H](C(=O)NO)C[C@H]3C2)cc1OCC1CC1`, 29 nM.
In turn, `COc1ccc([C@@]2(C#N)C[C@H]3C[C@H](C(=O)O)C[C@H]3C2)cc1OC1CCCC1` gave an IC50 of more than 300 nM.
The compound `COc1ccc([C@]2(C#N)C[C@H]3C[C@@H](C(=O)NO)C[C@H]3C2)cc1OC1CCCC1` showed an IC50 of 9.7 nM.
Consider `CCOc1cc([C@]2(C#N)C[C@H]3C[C@@H](C(=O)O)C[C@H]3C2)ccc1OC`, for which the IC50 worked out at 26 nM.
Same read-out and setting: to `COc1ccc([C@]2(C#N)C[C@H]3C[C@H](C(=O)O)C[C@H]3C2)cc1OC1CCCC1` belongs 150 nM.

A further assay deals with Rattus norvegicus. The assay can be described thus: Inhibition of LPS-induced TNF-alpha production in rats 0.5 hr after oral dose.
Settings: not given
It is filed as functional.
In turn, `COc1ccc([C@]2(C#N)C[C@H]3C[C@@H](C(=O)NO)C[C@H]3C2)cc1OC1Cc2ccccc2C1` came in with an Inhibition of 17%.
For the compound `COc1ccc([C@]2(C#N)C[C@H]3C[C@@H](C(=O)O)C[C@H]3C2)cc1OC(C)C`, the Inhibition amounted to 57%.
For the compound `COc1ccc([C@]2(C#N)C[C@H]3C[C@@H](C(=O)NO)C[C@H]3C2)cc1OC`, the Inhibition was 55%.
As to `COc1ccc([C@]2(C#N)C[C@H]3C[C@@H](C(=O)NO)C[C@H]3C2)cc1OC(C)C`, the Inhibition turned out to be 47%.
The same measure, in the same setting: the result for `COc1ccc([C@]2(C#N)C[C@H]3C[C@@H](C(=O)NO)C[C@H]3C2)cc1OC1CCCC1` reads 52%.

Still in this assay, the particulars now being: read-out: ID50 (the source's name).
`COc1ccc([C@]2(C#N)C[C@H]3C[C@@H](C(=O)O)C[C@H]3C2)cc1OC1CCCC1`: the ED50 stood at 0.4 mg/kg.
Take `COc1ccc([C@]2(C#N)C[C@H]3C[C@@H](C(=O)O)C[C@H]3C2)cc1OC1Cc2ccccc2C1`: the ED50 stood at 1.7 mg/kg.
Take `CCOc1cc([C@]2(C#N)C[C@H]3C[C@@H](C(=O)NO)C[C@H]3C2)ccc1OC`: the ED50 came out at 1.8 mg/kg.
On the same count and under the same terms, the result for `COc1ccc([C@]2(C#N)C[C@H]3C[C@@H](C(=O)NO)C[C@H]3C2)cc1OCC1CC1` reads 3 mg/kg; that for `COc1ccc([C@]2(C#N)CC[C@@H](C(=O)O)CC2)cc1OC1CCCC1` [CILOMILAST], 1.7 mg/kg; that for `CCOc1cc([C@]2(C#N)C[C@H]3C[C@@H](C(=O)O)C[C@H]3C2)ccc1OC`, 2.9 mg/kg.
On the same count and under the same terms, the result for `COc1ccc([C@]2(C#N)C[C@H]3C[C@H](C(=O)O)C[C@H]3C2)cc1OC1CCCC1` reads 3.8 mg/kg.

For a further assay, the species on record is Rattus norvegicus. The assay can be described thus: (§1) Inhibition of gastric emptying in rats.
Settings: not given
It is filed as functional, Stomach.
Compound `COc1ccc([C@]2(C#N)C[C@H]3C[C@@H](C(=O)O)C[C@H]3C2)cc1OC1CCCC1` showed an Inhibition of 73%.

A further assay is filed under the species Rattus norvegicus. Described as §1. It counts as functional. As to conditions: Stomach, read-out: ID50 (the source's name).
On to `CCOc1cc([C@]2(C#N)C[C@H]3C[C@@H](C(=O)NO)C[C@H]3C2)ccc1OC`, for which the ED50 was determined as 12 mg/kg.
Still for that read-out and setting: to `COc1ccc([C@]2(C#N)CC[C@@H](C(=O)O)CC2)cc1OC1CCCC1` [CILOMILAST] belongs 5.7 mg/kg.
For the compound `CCOc1cc([C@]2(C#N)C[C@H]3C[C@@H](C(=O)O)C[C@H]3C2)ccc1OC`, the ED50 was 17 mg/kg.

For orientation: inhibition means the change of the read-out against control, counted positive when it falls. The low end stands for little suppression, the high end for strong suppression. The term Inhibition denotes the percentage by which the read-out fell short of the control.

(Values after ChEMBL document CHEMBL1147610, “Orally active PDE4 inhibitors with therapeutic potential” (Bioorg Med Chem Lett, 2004).)
